In patent publication US20250027930A1, “SMALL MOLECULES FOR REPROGRAMING ANTI-TUMOR IMMUNITY OF T CELLS” (THE SCRIPPS RESEARCH INSTITUTE, priority 2021, published 2025):

Experiments:
hPBMCs [1] = assay: Donor hPBMC expansion with irradiated feeder cells; format: cell-based, human; conditions: 2 μM
anti-GD2 CAR-T cells = assay: Anti-GD2 CAR-T cell expansion with Inhibitor 9/12, phenotype and cell number; conditions: for expression of inhibitory receptors (PD-1, LAG3, Tim-3 and CD39) of anti-GD2 CAR-T cells / progenitor features of anti-GD2 CAR-T cells: Inhibitor 9 at 2 or 3 uM, Inhibitor 12 at 1 or 2 uM, day 15
M8 tetramer+ CD8+ TILs = assay: Rapid expansion of M8 tetramer+ CD8+ TILs from MC38 tumors; format: cell-based, mouse; conditions: 5 μM
Source text: We further observed that K-Ras(G12C) inhibitor 12 prevents the generation of terminally exhausted (PD-1^+, Tim-3^+) antigen-specific CD8^+ tumor infiltrating lymphocytes (TILs) and facilitates production of progenitor-like (Tpex, Tim-3^−, TCF-1^+) antigen-specific CD8^+ TILs during in vitro expansion. Specifically, to elucidate the ability of K-Ras(G12C) inhibitor 12 to modulate properties of tumor infiltrating lymphocytes (TILs) in vitro, we utilized an MC38 murine colonic cancer model. C57BL/6J (B6) mice were inoculated with MC38 cells. Tumors were grown for 14 days and then harvested. Antigen specific (H-2K^b-restricted MuLV p15E604-611-specific, henceforth M8 tetramer^+) CD8^+ TILs were isolated. M8 tetramer^+ CD8^+ TILs were subjected to rapid expansion. On day 1 of rapid expansion, TILs were added 1:100 with irradiated BALB/c splenocytes and incubated with 1500 IU/mL IL2 for proliferation, […] anti-CD3 (mouse) antibody for activation, and with or without K-Ras(G12C) inhibitor 12 (5 μM).

CD8+ OT-I T cells = assay: OT-I splenocyte culture with K-Ras(G12C) inhibitors; format: cell-based, mouse; conditions: 5 μM
OT-I splenocytes = assay: OT-I splenocyte culture with KRAS (G12C) inhibitors 9/12 and analogues; format: cell-based, mouse; conditions: added D0 at 5 uM or D3 at 5 uM or 10 uM, kept till day 7
Protocol: We performed additional studies to examine the observed activities of KRAS (G12C) inhibitors in modulating T cell properties. First, OT-I splenocytes were activated with OVA257-264 peptide (500 nM) for 3 days in the presence of 60 IU/mL IL-2 and cultured for another 7 days. Inhibitor 9 (i9) or inhibitor 12 (i12) was added on Day0 (D0) upon activation at 5 uM and the concentration was kept till day 7 or added on Day3 (D3) after activation at 5 uM or 10 uM and the concentration was kept till day 7 for analysis.
Other than inhibitors 9 and 12, we also tested activities of two analogues of these KRAS (G12C) inhibitors. The analogues, Z7 and Z6, are derived from Inhibitor 9 and Inhibitor 12, respectively. They have an alkynyl group for click reaction which is used for ABPP analysis to find the targets of the inhibitors (FIG. 18A). In the studies, OT-I splenocytes were activated with OVA257-264 peptide (500 nM) for 3 days in the presence of 60 IU/mL IL-2 and cultured for another 7 days. 5 uM […], i9, z6 or z7 were added on Day0 (DO) upon activation.
As noted above, Inhibitor 9 and Inhibitor 12 have a cysteine-reactive group ([…] and acrylamide) that allows covalent binding of i9 and i12 to a cysteine residue in proteins. We further tested two analogue compounds, ZT-1 and ZT-2, that are not capable of forming the covalent binding. […] Cell number was recorded on day 5 and day 7. […]

hPBMCs [2] = assay: Donor hPBMC expansion with irradiated feeder cells; format: cell-based, human; conditions: 2 μM; remark: listed apart in the source
Protocol: (FIG. 9A) Donor hPBMCs were activated twice with irradiated (50 Gy) feeder cell mixture, initially on day 0 and then similarly on day 6. […] (FIG. 9C) Gated CD8^+ hPBMCs were analyzed for the expression of inhibitory receptors Tim-3 and PD-1 (terminally exhausted phenotype downregulation not statistically significant in either donor). (FIG. 9D) the expression of Tim-3 and TCF-1. (FIG. 9E) the expression of CCR7 and CD45RA.
Donor hPBMC cells were co-cultured 1:1 with an irradiated (50 Gy) mixture of hPBMCs from five different donors (henceforth, feeder cells). Irradiation arrests cell division, yet these feeder cells retain the ability to provide extracellular secretions to help donor cells proliferate. Cytokine signaling and HLA mismatch provides for robust donor hPBMC activation. Donor hPBMCs were activated twice with the irradiated feeder cell mixture, initially on day 0 and then similarly on day 6 (FIG. 9A). Beginning on day 0, donor hPBMCs were continuously cultured with 300 IU/mL IL2 and with or without K-Ras(G12C) inhibitor 12 (2 μM) (FIG. 9A).

[3] = system: MC38 TSA-reactive CD8+ TILs; assay: Rapid expansion of TSA-reactive CD8+ TILs from MC38 tumors; format: cell-based, mouse
Protocol: Sugars were added at the beginning or during the expansion of the TILs, and kept till the end of expansion. On expansion day 9, phenotypes of the expanded T cells were assessed, and the cells were used for adoptive transfer (FIG. 6E). For adoptive transfer, 0.5 million cells (B16-OVA or MC38) were inoculated subcutaneously on each mouse on day 0, Listeria monocytogenes-OVA (LM-OVA) infection 0.5 million CFU/mice on day 1, and blood analysis was recorded on day 7.

OT-1 cells = assay: OT-I-Tcf7GFP splenocyte screen: proliferation and Tim3−TCF-1+ ratio; format: cell-based, mouse; conditions: Day7, 80 mM
Protocol: Cell number was recorded on day 3 and day 7. On day 7, cells were stained with anti-CD8a (PerCP-Cy5.5) and anti-Tim3 (BV421) antibodies for flow cytometry or plate reader analysis.
Because TCF1 expression positively correlates with T cell stemness, the greater signal of EGFP a T cell expresses, the less differentiated the T cell is. Furthermore, if the compound also facilitates T cells proliferation, there would be more T cells per well in comparison to the untreated control. Therefore, a compound that not only maintains TCF-1 expression but also facilitates T cell growth would produce the strongest green fluorescence intensity. […] GlcA stands for glucuronic acid.

OVA-specific TILs = assay: In vivo expansion of expanded OVA-specific TILs after LM-OVA challenge; set-up: species or system mouse; conditions: naïve mice; vs T cells expanded without added sugars
P14 cells = assay: P14 splenocyte in vitro activation, re-stimulation and expansion; format: cell-based, mouse; conditions: 80 mM; for Fold of proliferation, Normalized to W/O: P14 cells
P14 CD8+ T cells = format: in vivo, mouse

C=CC(=O)N1CCN(C(=O)CNc2cc(I)c(Cl)cc2O)CC1 [K-Ras(G12C) inhibitor 12]
TEMRA (donor 3) or TEM (donor 4) CD4^+ hPBMCs (hPBMCs [1]): downregulated | stem-like memory CD4^+ T cells (TSCM, CCR7^+, CD45RA^+) (hPBMCs [1]): upregulated | progenitor-like phenotype (Tim-3^−, TCF-1^+) CD4^+ hPBMCs (hPBMCs [1]; day 13, donor 3, untreated 33.3%): 78.4% | terminally exhausted (PD-1^+, Tim-3^+) CD4^+ hPBMCs (hPBMCs [1]; day 13, donor 4, untreated 14.7%): 7.9% | progenitor-like phenotype (Tim-3^−, TCF-1^+) CD4^+ hPBMCs (hPBMCs [1]; day 13, donor 4, untreated 53.3%): 78.7% | expression of inhibitory receptors (PD-1, LAG3, Tim-3 and CD39) of anti-GD2 CAR-T cells (anti-GD2 CAR-T cells): decreased the expression of inhibitory receptors | progenitor features of anti-GD2 CAR-T cells (anti-GD2 CAR-T cells): increased progenitor features | CD8+ cells displaying the terminally exhausted phenotype (PD-1^+ Tim-3^+) (M8 tetramer+ CD8+ TILs; day 8 post rapid expansion, untreated 79.4%): 29.2% | cell expansion (M8 tetramer+ CD8+ TILs; day 8 post-expansion, pre-expansion 0.1×10^6, untreated 1.18×10^6, n=1): 0.397×10^6 TILs | CD8^+ cells displaying the progenitor-like phenotype (Tim-3^−, TCF-1^+) (M8 tetramer+ CD8+ TILs; post-expansion, untreated 0.076%): 12.8% | cell expansion (CD8+ OT-I T cells; OT-I): does not compromise cell expansion | generation of progenitor-like T cells (CD8+ OT-I T cells; OT-I culture model): effectively promoted the generation of progenitor-like T cells | terminally exhausted (PD-1^+, Tim-3^+) CD8^+ OT-I T cells (CD8+ OT-I T cells; day 5, untreated 23.8%): about 0.46% | progenitor-like phenotype (Tim-3^−, TCF-1^+) CD8^+ OT-I T cells (CD8+ OT-I T cells; day 5, untreated 38.6%): 91.6% | expression of inhibitory receptors (Tim-3+PD-1) (OT-I splenocytes): decreased | terminally exhausted (PD-1^+, Tim-3^+) CD8^+ hPBMCs (hPBMCs [2]; day 13, donor 3, untreated 3.52%): 2.6% | terminally exhausted (PD-1^+, Tim-3^+) CD4^+ hPBMCs (hPBMCs [2]; day 13, donor 3, untreated 15.7%): 0.83% | progenitor-like phenotype (Tim-3^−, TCF-1^+) CD8^+ hPBMCs (hPBMCs [2]; day 13, donor 3, untreated 15.9%): 51.5% | terminally exhausted (PD-1^+, Tim-3^+) CD8^+ hPBMCs (hPBMCs [2]; day 13, donor 4, untreated 5.01%): 3.27% | progenitor-like phenotype (Tim-3^−, TCF-1^+) CD8^+ hPBMCs (hPBMCs [2]; day 13, donor 4, untreated 6.78%): 39.7% | CD8^+ terminally differentiated effector memory cells (TEMRA, CCR7^−, CD45RA^+) (hPBMCs [2]; donor 3 and donor 4): downregulated | stem-like memory CD8^+ T cells (TSCM, CCR7^+, CD45RA^+) (hPBMCs [2]; donor 3 and donor 4): produced less-differentiated stem-like memory CD8^+ T cells | mean cell expansion (hPBMCs [2]; hPBMCs from both donors): no statistically significant compromise

OC[C@H]1O[C@@](CO)(O[C@H]2O[C@H](CO)[C@@H](O)[C@H](O)[C@H]2O)[C@@H](O)[C@@H]1O [Sucrose, sucrose]
cell surface anti-CLA (Cutaneous Lymphocyte-associated Antigen) staining [3]: significant increase | Tim3^−TCF-1^+ ratio of CD8^+ T cells (%) (OT-1 cells; w/o 2.6): 41.2% | activity at 80000 µM (OT-1 cells; Mus musculus, Splenocyte, 168 h, OT-1 cells, read-out: Proliferation fold, Normalized to W/O): 86% | proliferation of transferred expanded cells after LM-OVA challenge (OVA-specific TILs): better proliferation | Fold of proliferation, Normalized to W/O (P14 cells; Day6): 1.80 fold | Tim3^−TCF-1^+ ratio of CD8^+ T cells (%) (P14 cells; Day6, w/o 55.0): 89.8% | Fold of proliferation, Normalized to W/O (P14 cells; Day9): 2.85 fold | Tim3^−TCF-1^+ ratio of CD8^+ T cells (%) (P14 cells; Day9, w/o 3.5): 48.6% | percentages and total numbers of expanded virus-specific P14 CD8+ T cells in the blood (P14 CD8+ T cells; 7 dpi LCMV-Cl13, cells pre-treated in vitro, vs co-transferred untreated P14 cells): significantly higher | percentages and total numbers of expanded virus-specific P14 CD8+ T cells in the spleen and liver (P14 CD8+ T cells; 14 dpi LCMV-Cl13, cells treated in vitro, vs untreated): significantly higher

K-Ras(G12C) Inhibitor 9
proliferation of CAR-T cells (anti-GD2 CAR-T cells; 2 or 3 uM): facilitated the proliferation | expression of inhibitory receptors (PD-1, LAG3, Tim-3 and CD39) of anti-GD2 CAR-T cells (anti-GD2 CAR-T cells): decreased the expression of inhibitory receptors | progenitor features of anti-GD2 CAR-T cells (anti-GD2 CAR-T cells): increased progenitor features | expression of inhibitory receptors (Tim-3+PD-1) (OT-I splenocytes): decreased
